{"source": "paper PMC9469500", "about": "“Targeting an Initiator Allergen Provides Durable and Expansive Protection against House Dust Mite Allergy” (ACS Pharmacology & Translational Science, 2022)", "key": {"[1]": {"target": "T1, Der p 1 (Dermatophagoides pteronyssinus, UniProt P08176)", "T1 construct": "from tissue; host or cells: spent culture medium of Dermatophagoides pteronyssinus (native HDM extract); ammonium sulfate precipitation, size exclusion, SBTI column, Resource Q", "T1 sequence (P08176 99-320)": "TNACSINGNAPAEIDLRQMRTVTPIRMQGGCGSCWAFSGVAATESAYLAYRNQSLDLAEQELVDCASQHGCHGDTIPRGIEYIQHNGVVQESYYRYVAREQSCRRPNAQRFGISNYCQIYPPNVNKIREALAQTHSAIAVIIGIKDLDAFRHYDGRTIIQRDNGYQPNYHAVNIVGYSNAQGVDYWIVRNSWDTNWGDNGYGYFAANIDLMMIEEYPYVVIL", "assay_type": "biochemical", "conditions": "Figure 5A, in words", "description": "Assays were assembled in 96-well plate format using a PerkinElmer Multiprobe II Plus HTS EX robot (PerkinElmer, UK). […] Reactions were initiated by the addition of 10 μL Der p 1 dissolved in the reaction buffer at 2.5 μg/mL and followed at 30 °C by measurement of fluorescence (excitation/emission 330/420 nm) using either a Fusion Alpha-FP or Envision plate reader fitted with a temperature-controlled carrier (PerkinElmer, UK).\nInhibitor kinetics were analyzed from progress curves. For reversible inhibitors, IC50 values were calculated conventionally."}, "[2]": {"test_system": "unsensitized BN rats", "assay": "HDM extract challenge in unsensitized (naive) BN rats, duration of protection", "assay_type": "in vivo", "conditions": "for performance in vivo (maximum inhibition of the eosinophil response, Figure 5A): focused library, durability of inhibition studies"}, "[3]": {"conditions": "all other time points than those stated not significant, 50:1 molar equivalents"}, "[4]": {"conditions": "time points other than the stated exceptions, 50:1 molar equivalents i.t. aerosol"}, "[5]": {"conditions": "all time points, naive BN rats, HDM extract 10 µg Der p 1, single i.t. aerosol dose 50:1 molar equivalents"}, "[6]": {"conditions": "all time points, naive BN rats, HDM extract 10 µg Der p 1, single i.t. aerosol dose 50:1 molar equivalents to Der p 1"}}, "data": [{"compound": "3-((3S,6S,9S)-3-benzyl-9-isopropyl-6-methyl-1,4,7,10,11-pentaoxo-1-phenyl-2,5,8,12-tetraazatridecan-13-yl)benzoic acid [Compound 7]", "values": [{"measurement": "potency against the target molecule in vitro", "setting": "[1]", "value": "less potent than others"}, {"measurement": "BAL neutrophil response: significance of effect (P<0.05)", "setting": "[2]; [3]", "value": "significant"}, {"measurement": "performance in vivo (maximum inhibition of the eosinophil response, Figure 5A)", "setting": "[2]", "value": "effective"}, {"measurement": "BAL neutrophil response: significance of effect (P<0.05)", "setting": "[2]; pre-treatment at 60 min", "value": "not significant"}, {"measurement": "BAL neutrophil response: significance of effect (P<0.05)", "setting": "[2]; pre-treatment at 120 min", "value": "not significant"}, {"measurement": "BAL neutrophil response: significance of effect (P<0.05)", "setting": "[2]; pre-treatment at 360 min", "value": "not significant"}, {"measurement": "Reduction in BAL eosinophil response: significance of inhibition (P<0.05)", "setting": "[2]; [4]", "value": "significant"}]}, {"compound": "CC(C)[C@H](NC(=O)[C@H](C)NC(=O)[C@@H](NC(=O)c1ccccc1)C(C)(C)C)C(=O)C(=O)NCC(=O)N1CCc2ccccc2C1", "note": "[Compound 3, N-[(S)-1-((S)-1-{(S)-1-[2-(3,4-dihydro-1H-isoquinolin-2-yl)-2-oxo-ethylaminooxalyl]-2-methyl-propylcarbamoyl}-ethylcarbamoyl)-2,2-dimethyl-propyl]-benzamide]", "values": [{"measurement": "BAL neutrophil response: significance of effect (P<0.05)", "setting": "[2]; [5]", "value": "significant"}, {"measurement": "Reduction in BAL eosinophil response: significance of inhibition (P<0.05)", "setting": "[2]; [6]", "value": "significant"}]}, {"compound": "CC(C)[C@H](NC(=O)[C@H](C)NC(=O)[C@H](Cc1ccccc1)NC(=O)c1ccccc1)C(=O)C(=O)NCC(=O)N1CC[N+](C)(C)CC1.O=C[O-]", "note": "[Compound 4, 4-(2-{(S)-3-[(S)-2-((S)-2-benzoylamino-3-phenyl-propionylamino)-propionylamino]-4-methyl-2-oxo-pentanoylamino}-acetyl)-1,1-dimethyl-piperazin-1-ium formate]", "values": [{"measurement": "potency against the target molecule in vitro", "setting": "[1]", "value": "less potent than others"}, {"measurement": "BAL neutrophil response: significance of effect (P<0.05)", "setting": "[2]; [5]", "value": "significant"}, {"measurement": "Reduction in BAL eosinophil response: significance of inhibition (P<0.05)", "setting": "[2]; [6]", "value": "significant"}, {"measurement": "performance in vivo (maximum inhibition of the eosinophil response, Figure 5A)", "setting": "[2]", "value": "effective"}]}, {"compound": "CC(C)[C@H](NC(=O)[C@H](C)NC(=O)[C@@H](NC(=O)c1ccnc2ccccc12)C(C)(C)C)C(=O)C(=O)NCc1ccccc1", "note": "[Compound 5, quinoline-4-carboxylic acid {(S)-1-[(S)-1-((S)-1-benzylaminooxalyl-2-methyl-propylcarbamoyl)-ethylcarbamoyl]-2,2-dimethyl-propyl}-amide]", "values": [{"measurement": "potency against the target molecule in vitro", "setting": "[1]", "value": "less potent than others"}, {"measurement": "BAL neutrophil response: significance of effect (P<0.05)", "setting": "[2]; [5]", "value": "significant"}, {"measurement": "Reduction in BAL eosinophil response: significance of inhibition (P<0.05)", "setting": "[2]; [6]", "value": "significant"}, {"measurement": "onset: temporal separation between drug dosing and HDM challenge required to achieve 50% inhibition of the eosinophil response", "setting": "[2]; estimated, Figure 5D–F, in words", "value": "slower onset"}, {"measurement": "performance in vivo (maximum inhibition of the eosinophil response, Figure 5A)", "setting": "[2]", "value": "effective"}]}, {"compound": "CC(C)[C@H](NC(=O)[C@H](C)NC(=O)[C@H](Cc1ccccc1)NC(=O)c1cccc2ccccc12)C(=O)C(=O)NCC(=O)N1CCN(C)CC1", "note": "[Compound 8, N-((S)-1-(((S)-1-(((S)-4-methyl-1-((2-(4-methylpiperazin-1-yl)-2-oxoethyl)amino)-1,2-dioxopentan-3-yl)amino)-1-oxopropan-2-yl)amino)-1-oxo-3-phenylpropan-2-yl)-1-naphthamide]", "values": [{"measurement": "potency against the target molecule in vitro", "setting": "[1]", "value": "less potent than others"}, {"measurement": "BAL neutrophil response: significance of effect (P<0.05)", "setting": "[2]; [3]", "value": "significant"}, {"measurement": "Reduction in BAL eosinophil response: significance of inhibition (P<0.05)", "setting": "[2]; [6]", "value": "significant"}, {"measurement": "performance in vivo (maximum inhibition of the eosinophil response, Figure 5A)", "setting": "[2]", "value": "effective"}, {"measurement": "BAL neutrophil response: significance of effect (P<0.05)", "setting": "[2]; pre-treatment at 60 min", "value": "not significant"}]}, {"compound": "CNC(=O)c1ccc(CNC(=O)C(=O)[C@@H](NC(=O)[C@H](C)NC(=O)[C@@H](N2Cc3ccccc3C2=O)C(C)(C)C)C(C)C)cc1", "note": "[Compound 9, 4-[((S)-3-{(S)-2-[(S)-3,3-dimethyl-2-(1-oxo-1,3-dihydro-isoindol-2-yl)-butyrylamino]-propionylamino}-4-methyl-2-oxo-pentanoylamino)-methyl]-N-methyl-benzamide]", "values": [{"measurement": "BAL neutrophil response: significance of effect (P<0.05)", "setting": "[2]; [5]", "value": "not significant"}, {"measurement": "Reduction in BAL eosinophil response: significance of inhibition (P<0.05)", "setting": "[2]; [4]", "value": "significant"}]}, {"compound": "CC(C)[C@H](NC(=O)[C@H](C)NC(=O)[C@@H](NC(=O)c1ccnc2ccccc12)C(C)(C)C)C(=O)C(=O)NCC(=O)N1CCN(C(C)C)CC1", "note": "[Compound 10, quinoline-4-carboxylic acid [(S)-1-((S)-1-{(S)-1-[2-(4-isopropyl-piperazin-1-yl)-2-oxo-ethylaminooxalyl]-2-methyl-propylcarbamoyl}-ethylcarbamoyl)-2,2-dimethyl-propyl]-amide]", "values": [{"measurement": "potency against the target molecule in vitro", "setting": "[1]", "value": "potent"}, {"measurement": "BAL neutrophil response: significance of effect (P<0.05)", "setting": "[2]; [5]", "value": "not significant"}, {"measurement": "performance in vivo (maximum inhibition of the eosinophil response, Figure 5A)", "setting": "[2]", "value": "performed less satisfactorily"}, {"measurement": "Reduction in BAL eosinophil response: significance of inhibition (P<0.05)", "setting": "[2]; [4]", "value": "significant"}]}, {"compound": "CC(C)[C@H](NC(=O)[C@H](C)NC(=O)[C@H](Cc1ccccc1)NC(=O)c1ccncc1)C(=O)C(=O)NCc1ccccc1", "note": "[Compound 11, N-((S)-1-(((S)-1-(((S)-1-(benzylamino)-4-methyl-1,2-dioxopentan-3-yl)amino)-1-oxopropan-2-yl)amino)-1-oxo-3-phenylpropan-2-yl)isonicotinamide]", "values": [{"measurement": "potency against the target molecule in vitro", "setting": "[1]", "value": "less potent than others"}, {"measurement": "BAL neutrophil response: significance of effect (P<0.05)", "setting": "[2]; [5]", "value": "not significant"}, {"measurement": "Reduction in BAL eosinophil response: significance of inhibition (P<0.05)", "setting": "[2]; [6]", "value": "significant"}, {"measurement": "performance in vivo (maximum inhibition of the eosinophil response, Figure 5A)", "setting": "[2]", "value": "effective"}]}, {"compound": "CC(C)[C@H](NC(=O)[C@H](C)NC(=O)[C@@H](NC(=O)c1ccncc1)C(C)(C)C)C(=O)C(=O)NC1CCCCC1", "note": "[Compound 12, N-{(S)-1-[(S)-1-((S)-1-cyclohexylaminooxalyl-2-methyl-propylcarbamoyl)-ethylcarbamoyl]-2,2-dimethyl-propyl}-isonicotinamide]", "values": [{"measurement": "Reduction in BAL eosinophil response: significance of inhibition (P<0.05)", "setting": "[2]; [6]", "value": "significant"}]}, {"compound": "CC(C)[C@H](NC(=O)[C@H](C)NC(=O)[C@H](Cc1ccccc1)NC(=O)c1ccccc1)C(=O)C(=O)NCC(=O)N1CCOCC1", "note": "[Compound 13, N-((S)-1-{(S)-1-[(S)-2-methyl-1-(2-morpholin-4-yl-2-oxo-ethylaminooxalyl)-propylcarbamoyl]-ethylcarbamoyl}-2-phenyl-ethyl)-benzamide]", "values": [{"measurement": "Reduction in BAL eosinophil response: significance of inhibition (P<0.05)", "setting": "[2]; [6]", "value": "significant"}, {"measurement": "BAL neutrophil response: significance of effect (P<0.05)", "setting": "[2]; pre-treatment at 60 min", "value": "not significant"}, {"measurement": "BAL neutrophil response: significance of effect (P<0.05)", "setting": "[2]; pre-treatment at 240 min", "value": "not significant"}]}, {"compound": "CC(C)[C@H](NC(=O)[C@H](C)NC(=O)[C@@H](NC(=O)c1ccccc1C(=O)O)C(C)(C)C)C(=O)C(=O)NCC(=O)N1CCN(C)CC1", "note": "[Compound 14, 2-(((S)-3,3-dimethyl-1-(((S)-1-(((S)-4-methyl-1-((2-(4-methylpiperazin-1-yl)-2-oxoethyl)amino)-1,2-dioxopentan-3-yl)amino)-1-oxopropan-2-yl)amino)-1-oxobutan-2-yl)carbamoyl)benzoic acid]", "values": [{"measurement": "BAL neutrophil response: significance of effect (P<0.05)", "setting": "[2]; [5]", "value": "significant"}, {"measurement": "Reduction in BAL eosinophil response: significance of inhibition (P<0.05)", "setting": "[2]; [6]", "value": "significant"}]}, {"compound": "CC(C)[C@H](NC(=O)[C@H](C)NC(=O)[C@@H](NC(=O)c1ccccc1)C12CC3CC(CC(C3)C1)C2)C(=O)C(=O)NCC(=O)N1CCN(C)CC1", "note": "[Compound 15, N-[(S)-adamantan-1-yl-((S)-1-{(S)-2-methyl-1-[2-(4-methyl-piperazin-1-yl)-2-oxo-ethylaminooxalyl]-propylcarbamoyl}-ethylcarbamoyl)-methyl]-benzamide]", "values": [{"measurement": "BAL neutrophil response: significance of effect (P<0.05)", "setting": "[2]; [5]", "value": "significant"}, {"measurement": "Reduction in BAL eosinophil response: significance of inhibition (P<0.05)", "setting": "[2]; [6]", "value": "significant"}, {"measurement": "performance in vivo (maximum inhibition of the eosinophil response, Figure 5A)", "setting": "[2]", "value": "useful in vivo activity"}]}, {"compound": "N-((S)-1-(((S)-1-(((S)-1-(cyclohexylamino)-4-methyl-1,2-dioxopentan-3-yl)amino)-1-oxopropan-2-yl)amino)-3,3-dimethyl-1-oxobutan-2-yl)isoquinoline-4-carboxamide [Compound 6]", "values": [{"measurement": "BAL neutrophil response: significance of effect (P<0.05)", "setting": "[2]; [3]", "value": "significant"}, {"measurement": "BAL neutrophil response: significance of effect (P<0.05)", "setting": "[2]; pre-treatment at 60 min", "value": "not significant"}, {"measurement": "BAL neutrophil response: significance of effect (P<0.05)", "setting": "[2]; pre-treatment at 120 min", "value": "not significant"}, {"measurement": "Reduction in BAL eosinophil response: significance of inhibition (P<0.05)", "setting": "[2]; [4]", "value": "significant"}]}]}
